ChEMBL document CHEMBL1130389, “Synthesis and ligand binding studies of 4'-iodobenzoyl esters of tropanes and piperidines at the dopamine transporter” (J Med Chem, 1997)

These molecules were tested against Sodium-dependent dopamine transporter (Rattus norvegicus, UniProt P23977) (assay: Compound was tested for inhibitory activity to displace [3H]WIN-35428 at dopamine transporter in Rat Striatal Membranes.).
Sodium-dependent dopamine transporter, sequence (P23977 whole entry): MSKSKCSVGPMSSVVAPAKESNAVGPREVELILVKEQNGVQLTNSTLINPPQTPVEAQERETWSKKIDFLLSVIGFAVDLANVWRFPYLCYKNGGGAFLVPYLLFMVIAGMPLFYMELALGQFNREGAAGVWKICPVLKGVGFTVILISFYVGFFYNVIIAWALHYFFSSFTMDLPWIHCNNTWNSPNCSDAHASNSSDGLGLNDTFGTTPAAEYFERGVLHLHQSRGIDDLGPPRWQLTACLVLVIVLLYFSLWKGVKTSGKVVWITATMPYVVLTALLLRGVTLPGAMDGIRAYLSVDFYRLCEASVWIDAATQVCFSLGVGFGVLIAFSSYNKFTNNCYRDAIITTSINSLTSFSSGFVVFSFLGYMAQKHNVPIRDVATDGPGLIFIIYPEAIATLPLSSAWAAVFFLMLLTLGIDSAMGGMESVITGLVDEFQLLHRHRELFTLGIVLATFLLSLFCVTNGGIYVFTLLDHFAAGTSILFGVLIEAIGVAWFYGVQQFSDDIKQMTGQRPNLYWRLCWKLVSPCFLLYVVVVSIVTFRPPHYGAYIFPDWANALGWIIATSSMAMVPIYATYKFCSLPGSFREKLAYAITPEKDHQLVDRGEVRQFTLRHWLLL

Question: Which IC50 does the source give for `COC(=O)[C@H]1[C@@H](OC(=O)c2ccc(I)cc2O)C[C@H]2CC[C@H]1N2C` here?
Answer: The IC50 was 215 nM.

Question: Which IC50 does the source give for `COC(=O)C1CN(C)CC[C@@H]1OC(=O)c1ccc(I)cc1` (some centres not stated) here?
Answer: The IC50 was 8060 nM.

Question: How did the IC50 turn out when `COC(=O)[C@@H]1C2CC[C@H](C[C@@H]1OC(=O)c1cccc(O)c1)N2C` was run?
Answer: Its IC50 is 1180 nM.

Question: How did the IC50 turn out when `CN1CCC(OC(=O)c2ccc(I)cc2)CC1` was run?
Answer: Its IC50 is 11600 nM.

Question: For `COC(=O)[C@H]1[C@@H](OC(=O)c2ccccc2OC(C)=O)CC2CC[C@H]1N2C`, which IC50 is on record?
Answer: Its IC50 is 69.5 nM.

Question: How did the IC50 turn out when `COC(=O)[C@H]1[C@@H](OC(=O)c2ccccc2O)C[C@H]2CC[C@H]1N2C` was run?
Answer: The IC50 was 25.2 nM.

Question: With `COC(=O)[C@@H]1C2CC[C@H](C[C@@H]1OC(=O)c1ccc(O)cc1)N2C` as the molecule, how does the IC50 read?
Answer: Its IC50 is 153 nM.
